Laboratory results: paper PMC11362529, “Exploring the neuroprotective potential of Nrf2-pathway activators against annonacin toxicity” (Scientific Reports, 2024)

Columns and labels:
Type in all cases: cell-based, human
LUHMES cells = experiment: Protective effects against annonacin toxicity, calcein viability assay; details: with 20 nM annonacin, glucose-reduced medium, 48 h; 40 μM Ki 696–2, 1 μM HPP-D, 15 μM ezetimibe, 4 μM licochalcone A; most protective or highest non-toxic concentration for the others
Method: (§1) The calcein AM green dye (Thermo Fisher Scientific) was diluted in DMSO to obtain a 1 mM stock solution. The stock solution was further diluted in HBSS (Hanks' balanced salt solution), immediately before incubation, to achieve a final working concentration of 1 μM in the well. The medium was removed, the cells were washed once with warm HBSS, and 200 µl of calcein working solution was added to each well. For background correction, 200 µl of calcein working solution was added to a well without cells (background control). After 30 min of incubation at 37 °C, the calcein solution was removed and the cells were washed once with HBSS. Cells were lysed in a 200 µl volume of 1% Triton™ X-100 in PBS (phosphate buffered saline) and the lysate transferred to a 96‐well black plate for the readout. The fluorescence signal was measured on a FLUOstar® Omega plate reader (BMG LabTech, Ortenberg, Germany) at λ Ex/Em = 485/530 nm and data was analyzed with the MARS data analysis software (BMG LabTech). For background correction, we subtracted the background control signal from the measured values of all experimental conditions. Data were expressed as percentage of viability relative to the control (DMSO-treated) condition.
For pharmacological treatments, we acquired several previously described Nrf2-pathway activators: ezetimibe (Cayman), licochalcone A (MedChem Express, New Jersey, NJ, USA), bardoxolone methyl, saracatinib and PP2 (AbMole BioScience Inc., Houston, TX, USA). The enantiomers Ki 696–1 and Ki 696–2, and the compound HPP-D were kindly provided by Orion Pharma (Espoo, Finland). All compounds were dissolved in DMSO and stored in small aliquots at -80 °C to avoid freeze–thaw cycles. Compound general toxicity was determined on PLO/FN double-coated 48-well microplates as follows: after 4 days of differentiation, LUHMES cells were incubated with the different Nrf2-pathway activators at concentrations ranging from 1 nM to 100 µM, for 96 h. The cell viability was assessed by calcein assay on day 8 of differentiation. Non-toxic concentrations of the Nrf2-pathway activators were selected and used in the pharmacological treatments, in combination with 20 nM of annonacin, in glucose-reduced differentiation medium, over a period of 48 h, similar to an in vitro model reported before. The protective effects of Nrf2-pathway activators against annonacin toxicity were determined in terms of cell viability with the calcein assay.

pThr-181 tau = experiment: AT270 (pThr-181 tau) immunofluorescence; details: 48 h
Method: (§2) For immunostaining, cells were seeded in differentiation medium, on 24-well microplates containing PLO/FN-coated 13 mm Ø coverslips, and treated for 48 h as previously described. On the readout day, the medium was removed and cells were fixed, permeabilized and blocked as before. Primary antibody dilutions were made in 1.5% NHS in PBS (Supplementary Table S1) and incubated overnight at 4 °C. On the following day, the coverslips were washed three times with PBS and incubated with host-specific fluorescence secondary antibodies (Supplementary Table S1), for 2 h at RT, protected from light. After another three washes with PBS, cell nuclei were stained with 1:5,000 DAPI (4’,6-diamidino-2-phenylindole, Thermo Fisher Scientific) in PBS, for 15 min at RT. The coverslips were mounted in mowiol and left to dry for 24 h before imaging. Image acquisition for FI quantification was done with a 200 × magnification (20 × objective, 10 × intermediate magnification), or 400x (40 × objective, 10 × intermediate magnification) in the case of pSC-35 and AT8 immunostaining, on a fluorescence microscope Leica-DFC9000GTC (Leica). In the case of phospho-tau AT8, Z-stacks consisting of 18 plane images with a step size of 1 μm were acquired. The image acquisition parameters were identical for all conditions. Quantification of 8-OHdG (8-hydroxyguanosine) FI and tau species was performed using the ImageJ software. Ten-to-fifteen images per condition across triplicates, from different view fields, were used for this purpose. Briefly, TIFF exported images were submitted to background subtraction using the rolling ball method with a radius of 50 pixels. For 8-OHdG analysis, a channel-specific threshold was applied to all images to define the ROI and FI was measured and normalized to the cell number, determined by the DAPI channel. The average value of the different view fields per experimental condition was taken and reported as fold change compared to the control (DMSO-treated) condition. For the analysis of phospho-tau AT270 and pan-tau reactivity, channel specific thresholds were applied to all images. The DAPI channel was used to define nuclei from viable cells, by selecting particles with a size above 15 µm^2 and a circularity of 0.3–1.0. The obtained mask was submitted to “close” and “fill holes” processes to smooth the objects and fill in small holes, followed by nine “dilations” and one “watershed” to obtain a ROI covering exclusively the soma of viable cells. The obtained mask was combined with threshold images of phospho-tau AT270 and pan-tau in order to define the respective ROI of each tau species. These masks were used to quantify the number of somas expressing each of these tau species, as well as the respective FI. The number of AT270-positive somas was divided by the number of pan-tau-positive somas and expressed as a percentage. The AT270 FI was normalized to the pan-tau FI and the ratio presented as fold change relative to the control (DMSO-treated) condition. For quantification of pSC-35 and AT8 speckle number and FI, we used CellProfiler™ 4 (https://cellprofiler.org/, Broad Institute Inc., Cambridge, MA, USA) speckle counting pipeline. Twenty-to-thirty images per condition across triplicates were used for this purpose. ImageJ BIOP JACoP plugin was used for estimating co-localization of AT8 with DAPI-stained nuclei. Data were reported as fold change compared to the control (DMSO-treated) condition, or as Pearsonʹs coefficient values in case the of AT8 co-localization data.

[1] = test system: Nrf2-knockdown LUHMES cells; experiment: Cell viability in Nrf2-knockdown cells exposed to annonacin (calcein); details: Nrf2 siRNA, compound + 20 nM annonacin, 48 h
Method: as §1
LUHMES cells seeded on PLO/FN coated 48-well microplates were left to differentiate for 5 days, before being transfected with 25 nM of NRF2-targeting (gene ID 4780) or negative control siRNA (siTOOLs Biotech, Planegg, Germany), in Opti-MEM + GlutaMax medium (Thermo Fisher Scientific) with 0.4% of lipofectamine RNAiMax. After 24 h, the medium was removed and replaced with glucose-reduced medium for the pharmacological treatments, similar as described in the previous sections. Cell viability was determined by calcein assay, after 48 h of treatment, as explained before.

[2] = test system: pSer-202 and pThr-205 tau; experiment: AT8 (pSer-202/Thr-205 tau) immunofluorescence; details: 48 h
Method: as §2

[3] = protective concentration of compound + 20 nM annonacin, vs annonacin
[4] = 20 nM annonacin alone, vs control
[5] = protective concentration of compound + 20 nM annonacin
[6] = protective concentration of compound + 20 nM annonacin, compared to annonacin

SMILES	reduction of annonacin toxicity (LUHMES cells) [%]	pThr-181 tau (AT270) normalized to pan-tau, neuritic and somatic compartment (pThr-181 tau; [3])	protective effects against annonacin toxicity in Nrf2-knockdown cells [1]	AT270-positive somas (pThr-181 tau; 20 nM annonacin alone)	AT270 reactivity normalized to pan-tau, in the soma area (pThr-181 tau; 20 nM annonacin alone) [ratio]	pThr-181 tau (AT270) normalized to pan-tau, neuritic and somatic compartment (pThr-181 tau; 20 nM annonacin alone) [ratio]	Pearson´s coefficient between AT8 reactivity and DAPI-stained nuclei (r) ([2]; 20 nM annonacin alone)	AT8 fluorescence intensity [2, 4]	number of AT8 speckles per nucleus [2, 4]	AT270-positive somas (pThr-181 tau; 15 μM ezetimibe + 20 nM annonacin) [%]	Pearson´s coefficient between AT8 reactivity and DAPI-stained nuclei (r) [2, 5]	AT8 fluorescence intensity [2, 6]	number of AT8 speckles [2, 6]
Cn1c(Nc2nc3ccc(C(F)(F)F)cc3s2)nc2cc(C(=O)NCCOCCO)ccc21 [HPP-D]	21	attenuated annonacin-induced tau hyperphosphorylation	slightly attenuated in Nrf2-knockdown cells	–	–	–	–	–	–	–	–	–	–
CCCCCCCCCCCC[C@@H](O)[C@H]1CC[C@H]([C@H](O)CCCC[C@H](O)CCCCC[C@@H](O)CC2=CC(C)OC2=O)O1 (stereo partly shown) [annonacin]	–	–	–	more than 90%	1.9	3.4	0.58	statistically higher AT8 fluorescence intensity	non-significant propensity to increase the number of AT8 speckles per nucleus	–	–	–	–
O=C1[C@H](CC[C@H](O)c2ccc(F)cc2)[C@@H](c2ccc(O)cc2)N1c1ccc(F)cc1 [ezetimibe]	33	attenuated annonacin-induced tau hyperphosphorylation	did not observe an abolishment of the neuroprotective effects	–	–	–	–	–	–	75	0.45	significant reduction	significant reduction of the number of AT8 speckles
C=CC(C)(C)c1cc(/C=C/C(=O)c2ccc(O)cc2)c(OC)cc1O [licochalcone A]	34.6	attenuated annonacin-induced tau hyperphosphorylation	slightly attenuated in Nrf2-knockdown cells	–	–	–	–	–	–	–	0.38	significant reduction	significant reduction of the number of AT8 speckles
